{"source": "patent US20260232767A1", "about": "“INTERLEUKIN-23 RECEPTOR ANTAGONIST PEPTIDES FOR USE IN THE TREATMENT OF PSORIASIS” (Janssen Pharmaceutica NV, priority 2023, published 2026)", "test": "Plasma concentrations (PK), Example 1", "type": "in vivo, human", "details": "human, plasma, oral; for level at 1344 h: Week 8; for level at 168 h: Week 1, Trough; for level at 672 h: Week 4", "description": "For QD dosing, peak concentration was defined as any PK sample taken between 0.25 to <6 hours after the last morning dose and trough concentration was at least 20 hours after the last morning dose. For BID dosing, peak concentration was defined as any PK sample taken between 0.25 to <4 hours after the last dose and trough concentration was at least 8 hours after the last dose.", "key": {"[1]": {"details": "50 mg, 50 mg QD, Peak, read-out: Plasma concentration, Geometric Mean"}, "[2]": {"details": "50 mg, 50 mg QD, Peak, read-out: Plasma concentration, Mean"}, "[3]": {"details": "50 mg, 50 mg QD, Peak, read-out: Plasma concentration, Median"}}, "note": "Read-outs that look alike come from different tables or passages of the source."}
{"smiles": "CC(=O)NCCCC[C@@H]1NC(=O)[C@H](Cc2c[nH]c3c(C)cccc23)NC(=O)[C@H]([C@@H](C)O)NC(=O)[C@H](CC(N)=O)NC(=O)[C@@H](NC(C)=O)C(C)(C)SSC(C)(C)[C@@H](C(=O)N[C@@H](Cc2ccc(OCCN)cc2)C(=O)N[C@@H](Cc2ccc3ccccc3c2)C(=O)NC2(C(=O)N[C@@H](CCC(=O)O)C(=O)N[C@@H](CC(N)=O)C(=O)N[C@@H](Cc3cccnc3)C(=O)N(C)CC(N)=O)CCOCC2)NC1=O", "note": "[IL-23 receptor antagonist peptide, Ac-[Pen]*-N-T-[W(7-Me)]-[Lys(Ac)]-[Pen]*-Phe[4-(2-aminoethoxy)]-[2-Nal]-[THP]-E-N-[3-Pal]-Sarc-NH2 (*[Pen]-[Pen]* formdisulfidebond)]", "values": [{"measurement": "level at 1344 h", "setting": "25 mg, 25 mg QD, Trough, read-out: Plasma concentration, Median", "result": 0.06, "unit": "ng/mL"}, {"measurement": "level at 2016 h", "setting": "25 mg, 25 mg QD, Week 12, Trough, read-out: Plasma concentration, Mean", "result": 0.052, "unit": "ng/mL"}, {"measurement": "level at 2016 h", "setting": "25 mg, weight >90 kg, 25 mg BID, Week 12, Intermediate, read-out: Plasma concentration, Geometric Mean", "result": 0.214, "unit": "ng/mL"}, {"measurement": "level at 2016 h", "setting": "25 mg, weight >90 kg, 25 mg BID, Week 12, Peak, read-out: Plasma concentration, Geometric Mean", "result": 0.32, "unit": "ng/mL"}, {"measurement": "level at 2016 h", "setting": "25 mg, weight >90 kg, 25 mg BID, Week 12, Peak, read-out: Plasma concentration, Mean", "result": 0.391, "unit": "ng/mL"}, {"measurement": "level at 2016 h", "setting": "25 mg, weight >90 kg, 25 mg BID, Week 12, Peak, read-out: Plasma concentration, Median", "result": 0.365, "unit": "ng/mL"}, {"measurement": "level at 2688 h", "setting": "25 mg, weight >90 kg, 25 mg BID, Week 16, Intermediate, read-out: Plasma concentration, Mean", "result": 0.181, "unit": "ng/mL"}, {"measurement": "level at 2688 h", "setting": "25 mg, weight >90 kg, 25 mg BID, Week 16, Trough, read-out: Plasma concentration, Geometric Mean", "result": 0.144, "unit": "ng/mL"}, {"measurement": "level at 2688 h", "setting": "25 mg, weight >90 kg, 25 mg BID, Week 16, Trough, read-out: Plasma concentration, Mean", "result": 0.152, "unit": "ng/mL"}, {"measurement": "level at 2688 h", "setting": "25 mg, weight >90 kg, 25 mg BID, Week 16, Trough, read-out: Plasma concentration, Median", "result": 0.138, "unit": "ng/mL"}, {"measurement": "level at 168 h", "setting": "25 mg, weight >90 kg, 25 mg QD, read-out: Plasma concentration, Mean", "result": 0.044, "unit": "ng/mL"}, {"measurement": "level at 2016 h", "setting": "25 mg, weight >90 kg, 25 mg QD, Week 12, Peak, read-out: Plasma concentration, Geometric Mean", "result": 0.236, "unit": "ng/mL"}, {"measurement": "level at 2016 h", "setting": "25 mg, weight >90 kg, 25 mg QD, Week 12, Peak, read-out: Plasma concentration, Mean", "result": 0.281, "unit": "ng/mL"}, {"measurement": "level at 2016 h", "setting": "25 mg, weight >90 kg, 25 mg QD, Week 12, Peak, read-out: Plasma concentration, Median", "result": 0.291, "unit": "ng/mL"}, {"measurement": "level at 2688 h", "setting": "25 mg, weight >90 kg, 25 mg QD, Week 16, Intermediate, read-out: Plasma concentration, Mean", "result": 0.165, "unit": "ng/mL"}, {"measurement": "level at 2688 h", "setting": "25 mg, weight >90 kg, 25 mg QD, Week 16, Trough, read-out: Plasma concentration, Geometric Mean", "result": 0.063, "unit": "ng/mL"}, {"measurement": "level at 2688 h", "setting": "25 mg, weight >90 kg, 25 mg QD, Week 16, Trough, read-out: Plasma concentration, Mean", "result": 0.066, "unit": "ng/mL"}, {"measurement": "level at 2688 h", "setting": "25 mg, weight >90 kg, 25 mg QD, Week 16, Trough, read-out: Plasma concentration, Median", "result": 0.047, "unit": "ng/mL"}, {"measurement": "level at 2016 h", "setting": "25 mg, weight ≤90 kg, 25 mg QD, Week 12, Trough, read-out: Plasma concentration, Mean", "result": 0.045, "unit": "ng/mL"}, {"measurement": "level at 672 h", "setting": "[1]", "result": 0.481, "unit": "ng/mL"}, {"measurement": "level at 672 h", "setting": "[2]", "result": 0.564, "unit": "ng/mL"}, {"measurement": "level at 672 h", "setting": "[3]", "result": 0.539, "unit": "ng/mL"}, {"measurement": "level at 1344 h", "setting": "50 mg, 50 mg QD, Intermediate, read-out: Plasma concentration, Geometric Mean", "result": 0.441, "unit": "ng/mL"}, {"measurement": "level at 1344 h", "setting": "50 mg, 50 mg QD, Intermediate, read-out: Plasma concentration, Mean", "result": 0.441, "unit": "ng/mL"}, {"measurement": "level at 1344 h", "setting": "50 mg, 50 mg QD, Intermediate, read-out: Plasma concentration, Median", "result": 0.441, "unit": "ng/mL"}, {"measurement": "level at 1344 h", "setting": "[1]", "result": 0.853, "unit": "ng/mL"}, {"measurement": "level at 1344 h", "setting": "[2]", "result": 1.1, "unit": "ng/mL"}, {"measurement": "level at 1344 h", "setting": "[3]", "result": 0.78, "unit": "ng/mL"}, {"measurement": "level at 1344 h", "setting": "50 mg, 50 mg QD, Trough, read-out: Plasma concentration, Geometric Mean", "result": 0.111, "unit": "ng/mL"}, {"measurement": "level at 1344 h", "setting": "50 mg, 50 mg QD, Trough, read-out: Plasma concentration, Mean", "result": 0.147, "unit": "ng/mL"}, {"measurement": "level at 1344 h", "setting": "50 mg, 50 mg QD, Trough, read-out: Plasma concentration, Median", "result": 0.112, "unit": "ng/mL"}, {"measurement": "level at 2016 h", "setting": "50 mg, 50 mg QD, Week 12, Trough, read-out: Plasma concentration, Mean", "result": 0.085, "unit": "ng/mL"}, {"measurement": "level at 168 h", "setting": "50 mg, weight >90 kg, 50 mg QD, read-out: Plasma concentration, Mean", "result": 0.073, "unit": "ng/mL"}, {"measurement": "level at 2016 h", "setting": "50 mg, weight >90 kg, 50 mg QD, Week 12, Peak, read-out: Plasma concentration, Geometric Mean", "result": 0.551, "unit": "ng/mL"}, {"measurement": "level at 2016 h", "setting": "50 mg, weight >90 kg, 50 mg QD, Week 12, Peak, read-out: Plasma concentration, Mean", "result": 0.786, "unit": "ng/mL"}, {"measurement": "level at 2016 h", "setting": "50 mg, weight >90 kg, 50 mg QD, Week 12, Peak, read-out: Plasma concentration, Median", "result": 0.388, "unit": "ng/mL"}, {"measurement": "level at 2688 h", "setting": "50 mg, weight >90 kg, 50 mg QD, Week 16, Intermediate, read-out: Plasma concentration, Mean", "result": 0.321, "unit": "ng/mL"}, {"measurement": "level at 2688 h", "setting": "50 mg, weight >90 kg, 50 mg QD, Week 16, Trough, read-out: Plasma concentration, Geometric Mean", "result": 0.105, "unit": "ng/mL"}, {"measurement": "level at 2688 h", "setting": "50 mg, weight >90 kg, 50 mg QD, Week 16, Trough, read-out: Plasma concentration, Mean", "result": 0.096, "unit": "ng/mL"}, {"measurement": "level at 2688 h", "setting": "50 mg, weight >90 kg, 50 mg QD, Week 16, Trough, read-out: Plasma concentration, Median", "result": 0.115, "unit": "ng/mL"}, {"measurement": "level at 2016 h", "setting": "50 mg, weight ≤90 kg, 50 mg QD, Week 12, Trough, read-out: Plasma concentration, Mean", "result": 0.083, "unit": "ng/mL"}, {"measurement": "level at 672 h", "setting": "100 mg, 100 mg BID, Intermediate, read-out: Plasma concentration, Geometric Mean", "result": 0.756, "unit": "ng/mL"}, {"measurement": "level at 672 h", "setting": "100 mg, 100 mg BID, Peak, read-out: Plasma concentration, Geometric Mean", "result": 1.7, "unit": "ng/mL"}]}
